In patent publication US20230172897A1, “METHODS OF TREATING BREAST CANCERS WITH SELECTIVE ANDROGEN RECEPTOR MODULATORS AND ADDITIONAL THERAPEUTIC AGENTS” (VERU, INC., priority 2021, published 2023):
“And” between values parts separate entries of the source, which are not always exact repeats. Identical values can stand only once.

Tests used:
[1] = system: metastatic or locally advanced ER+/AR+ breast cancer; experiment: Phase 2 clinical trial (G200802), 9 mg or 18 mg daily; assay type: in vivo, postmenopausal women; details: for Best overall objective tumor response: CR (number) / Best overall objective tumor response: PR (number): all evaluable patients; for Average rPFS / Clinical Benefit Response Rate / Clinical Benefit Responses (CR + PR + SD) / Median rPFS / Objective Response Rate / Objective Responses (CR + PR): measurable disease at baseline
Procedure: Each dose arm was treated independently, and each assessed for efficacy using Simon's two-stage (optimal) design (Simon R. Optimal two-stage designs for Phase 2 clinical trials. Controlled Clinical Trials 1989; 10: 1-10). Subjects were randomized in a 1:1 fashion to one of the two dose arms.
Randomization was stratified by subjects presenting with bone only metastases and all other subjects, and further by setting of immediately preceding therapy (adjuvant setting or metastatic setting) in order to balance the proportion of subjects with these presenting features in each dose arm.
Thirty-six to eighty-eight (36-88) subjects with centrally confirmed AR+ who received at least one dose of study drug (evaluable subjects) were needed for primary efficacy analysis purposes and were a subset of the full analysis set (FAS). Fifty patients in the 9 mg cohort and 52 patients in the 18 mg cohort met these criteria. […] Other statistical parameters that were part of the sample size calculation are α=0.025 (one-sided) and power=90%. The first stage in each study arm was assessed among the first 18 evaluable subjects. Greater than 3/18 subjects achieved CB (defined as CR, PR, or SD) at week 24, and both arms proceeded to the second stage of recruitment up to a total of 44 evaluable subjects per arm. Otherwise, the arm would have been discontinued for lack of efficacy. Statistical significance, i.e., rejection of the null hypothesis of an unacceptably low CBR of ≤10% in favor of the alternative hypothesis that indicated the higher rate, ≥30%, was more likely, would be declared if at least 9/44 subjects achieved CB at week 24 in that arm.
These patients on the study had measurable disease at baseline and an AR staining prior to entry into the study. The radiographic imaging in this patient population was done every 12 weeks (2.7 months). Therefore, the minimum radiographic progression free survival (rPFS) that could be determined is approximately 2.7 months. 90% of the patients in the study had previously received non-endocrine based chemotherapy. The patients in this study had failed an average of 2 prior treatment lines for metastatic disease (range=0-5). FIG. 43 provides a scatterplot for the patients in this study with regard to the correlation between % AR-positive staining at baseline (% AR staining) and rPFS. […] However, in patients with greater than or equal to 40% AR-positive staining, the rPFS was delayed to variable extents (scatter plot pattern) in many to most cases. A positive correlation between rPFS and % AR staining was seen above the threshold of 40% AR staining. To explore this positive correlation further, several subgroups of AR % staining were defined and analyzed for metrics of efficacy, as shown in Table 14.

[2] = Protocol G100402, Phase 1 multiple ascending dose study; assay type: in vivo, healthy male volunteers
Description: These include: 1. Protocol G100401, a Phase 1 single ascending dose study in 96 healthy, young, male volunteers; 2. Protocol G100402, a Phase 1 multiple ascending dose study in 50 healthy, young, male volunteers, and 23 elderly male volunteers with truncal obesity; 3. Protocol G100503, a Phase 1 single dose pharmacokinetic study to assess the effect of a dosage regimen that simulates a sustained release formulation to an immediate release formulation in 18 healthy, young male volunteers and 18 postmenopausal women; 4. Protocol G100506, a Phase 1 single dose pharmacokinetic study to assess the relative bioavailability of a 3 mg […] formulation to be used during continued clinical development and to assess the effect of food on the pharmacokinetics of the 3 mg softgel formulation in 27 healthy, young, male volunteers; 5. Protocol 006, a Phase 1 single dose and multiple dose pharmacokinetic study in 24 postmenopausal, Japanese women; 6. Protocol G200501, a Phase 2 study in 60 postmenopausal women and 60 elderly men to assess lean body mass and physical function; 7. Protocol 003, a Phase 1b study in 44 postmenopausal women; 8. Protocol G200502, a Phase 2b study in 159 men and postmenopausal women with cancer to assess lean body mass and physical function; 9.
Both 10 mg and 30 mg daily doses were evaluated in Protocol G100402 for up to 14 days. Elevated alanine transaminase (ALT) (any elevation outside upper limit of normal [ULN]) was the most common adverse event (AE) experienced. None of the subjects in the 10 mg dose group were discontinued from the study due to ALT elevations. In the 30 mg dose group, six subjects experienced ALT increases above two times the ULN.
Reductions in sex hormone binding globulin (SHBG) have been identified as one of the most sensitive serum biomarkers for AR signaling in healthy volunteers and patients.

Q: Which results are given for `C[C@](O)(COc1ccc(C#N)cc1)C(=O)Nc1ccc(C#N)c(C(F)(F)F)c1` [Formula IX, (S)—N-(4-Cyano-3-(trifluoromethyl)phenyl)-3-(4-cyanophenoxy)-2-hydroxy-2-methylpropanamide]?
A: clinical benefit rate at 6 months ([1]; 9 mg): 32%; Quality of life assessments ([1]; 9 mg and 18 mg cohorts): significant improvement from baseline; tolerability ([1]; 9 mg and 18 mg doses): well tolerated; response rate in patients previously treated with palbociclib and failed ([1]; 9 mg arm, 3 patients): 33%; Median duration of clinical benefit ([1]; 9 mg group): not reached; Best overall objective tumor response: CR (number) ([1]; 9 mg, post-hoc): 3; Best overall objective tumor response: PR (number) ([1]; 9 mg, post-hoc): 8; Average rPFS ([1]; 9 mg, % AR staining 20-40): 2.51 months; Clinical Benefit Response Rate ([1]; 9 mg, % AR staining 20-40): 22%; Clinical Benefit Responses (CR + PR + SD) ([1]; 9 mg, % AR staining 20-40): 2; Median rPFS ([1]; 9 mg, % AR staining 20-40): 2.77 months; Objective Response Rate ([1]; 9 mg, % AR staining 20-40): 0%; Objective Responses (CR + PR) ([1]; 9 mg, % AR staining 20-40): 0; Average rPFS ([1]; 9 mg, % AR staining 40-60): 4.62 months; Clinical Benefit Response Rate ([1]; 9 mg, % AR staining 40-60): 86%; Clinical Benefit Responses (CR + PR + SD) ([1]; 9 mg, % AR staining 40-60): 6; Median rPFS ([1]; 9 mg, % AR staining 40-60): 2.93 months; Objective Response Rate ([1]; 9 mg, % AR staining 40-60): 43%; Objective Responses (CR + PR) ([1]; 9 mg, % AR staining 40-60): 3; Average rPFS ([1]; 9 mg, % AR staining 60-80): 8.10 months; Clinical Benefit Response Rate ([1]; 9 mg, % AR staining 60-80): 80%; Clinical Benefit Responses (CR + PR + SD) ([1]; 9 mg, % AR staining 60-80): 8; Median rPFS ([1]; 9 mg, % AR staining 60-80): 5.60 months; Objective Response Rate ([1]; 9 mg, % AR staining 60-80): 60%; Objective Responses (CR + PR) ([1]; 9 mg, % AR staining 60-80): 6; Average rPFS ([1]; 9 mg, % AR staining <20): 2.83 months; Clinical Benefit Response Rate ([1]; 9 mg, % AR staining <20): 15%; Clinical Benefit Responses (CR + PR + SD) ([1]; 9 mg, % AR staining <20): 2; Median rPFS ([1]; 9 mg, % AR staining <20): 2.70 months; Objective Response Rate ([1]; 9 mg, % AR staining <20): 0%; Objective Responses (CR + PR) ([1]; 9 mg, % AR staining <20): 0; Average rPFS ([1]; 9 mg, % AR staining <40): 2.7 months and 2.70 months; Clinical Benefit Response Rate ([1]; 9 mg, % AR staining <40): 18%; Clinical Benefit Responses (CR + PR + SD) ([1]; 9 mg, % AR staining <40): 4; Median rPFS ([1]; 9 mg, % AR staining <40): 2.72 months; Objective Responses (CR + PR) ([1]; 9 mg, % AR staining <40): 0; Average rPFS ([1]; 9 mg, % AR staining <60): 3.17 months; Clinical Benefit Response Rate ([1]; 9 mg, % AR staining <60): 34%; Clinical Benefit Responses (CR + PR + SD) ([1]; 9 mg, % AR staining <60): 10; Median rPFS ([1]; 9 mg, % AR staining <60): 2.77 months; Objective Response Rate ([1]; 9 mg, % AR staining <60): 10%; Objective Responses (CR + PR) ([1]; 9 mg, % AR staining <60): 3; Average rPFS ([1]; 9 mg, % AR staining >40): 7.15 months; Clinical Benefit Response Rate ([1]; 9 mg, % AR staining >40): 80%; Clinical Benefit Responses (CR + PR + SD) ([1]; 9 mg, % AR staining >40): 20; Median rPFS ([1]; 9 mg, % AR staining >40): 5.47 months; Objective Responses (CR + PR) ([1]; 9 mg, % AR staining >40): 12; Average rPFS ([1]; 9 mg, % AR staining >60): 8.14 months; Clinical Benefit Response Rate ([1]; 9 mg, % AR staining >60): 78%; Clinical Benefit Responses (CR + PR + SD) ([1]; 9 mg, % AR staining >60): 14; Median rPFS ([1]; 9 mg, % AR staining >60): 5.60 months; Objective Response Rate ([1]; 9 mg, % AR staining >60): 50%; Objective Responses (CR + PR) ([1]; 9 mg, % AR staining >60): 9; Average rPFS ([1]; 9 mg, % AR staining >80): 8.18 months; Clinical Benefit Response Rate ([1]; 9 mg, % AR staining >80): 75%; Clinical Benefit Responses (CR + PR + SD) ([1]; 9 mg, % AR staining >80): 6; Median rPFS ([1]; 9 mg, % AR staining >80): 6.23 months; Objective Response Rate ([1]; 9 mg, % AR staining >80): 38%; Objective Responses (CR + PR) ([1]; 9 mg, % AR staining >80): 3; median duration of response in patients with an objective tumor response ([1]; 9 mg, post-hoc): 8.18 months; responders with duration of response >12 months ([1]; 9 mg, post-hoc): 25%; responders with duration of response ≥6 months ([1]; 9 mg, post-hoc): 67%; clinical benefit rate at 6 months ([1]; 18 mg): 29%; response rate in patients previously treated with palbociclib and failed ([1]; 18 mg arm, 6 patients): 33%; Median duration of clinical benefit ([1]; 18 mg group): 14.1 months; Best overall objective tumor response: CR (number) ([1]; 18 mg, post-hoc): 1; Best overall objective tumor response: PR (number) ([1]; 18 mg, post-hoc): 5; patients with an objective response after progression on estrogen blocking agents and CDK 4/6 inhibitor ([1]; AR nuclei staining ≥40% (7 patients), post-hoc): 3 patients; objective response rate after progression on estrogen blocking agents and CDK 4/6 inhibitor ([1]; AR nuclei staining ≥60% subgroup (4 patients)): 75%; first stage: subjects achieving CB at week 24 ([1]; both arms (9 mg, 18 mg), first 18 evaluable subjects): Greater than 3/18; subjects discontinued due to ALT elevations ([2]; 10 mg dose group): None; subjects with ALT increases above two times the ULN ([2]; 30 mg dose group): six; reduction of SHBG ([2]; PO 1 mg daily for 14 days): 15.1%; reduction of SHBG ([2]; PO 3 mg daily for 14 days): 15.6%; reduction of SHBG ([2]; PO 10 mg daily for 14 days): 18.2%; reduction of SHBG ([2]; PO 30 mg daily for 14 days): 18.4%; tolerability ([2]; daily doses up to 30 mg): well tolerated
